Test results: US12540117B2, “Aniline compound used as RORγ regulator” (SHANGHAI LITEDD CO., LTD., priority 2020, dated 2026)
pIC50: −log10 of the molar value.

What was measured:
RORγt = target: T1, RORγt (Homo sapiens, UniProt P51449); assay: In vitro luciferase reporter assay of RORγt inhibition (GAL4-RORγ-LBD in HEK293T); settings: for pIC50: IC50, RORγt luciferase reporter gene, HEK293T; for Emax % / Emax: relative maximum inhibition rate relative to AZD-0284 at 10 μM; for Emax: HEK-293T
T1 sequence (P51449 269-508 limits assumed): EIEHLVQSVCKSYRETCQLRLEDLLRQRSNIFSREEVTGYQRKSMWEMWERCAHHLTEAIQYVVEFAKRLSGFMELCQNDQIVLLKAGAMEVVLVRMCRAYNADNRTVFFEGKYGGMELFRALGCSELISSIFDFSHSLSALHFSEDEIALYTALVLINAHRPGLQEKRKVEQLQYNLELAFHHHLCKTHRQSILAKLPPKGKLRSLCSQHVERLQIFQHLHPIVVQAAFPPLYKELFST
From the text: The RORγ-LBD coding sequence was inserted into pBIND plasmid (Promega, E1581). The expression vector and a reporter vector (pGL4.35 carrying a stably integrated luciferase reporter gene driven by GAL4 promoter) were co-expressed in HEK293T host cells. When the inhibitor binds to the corresponding chimeric receptor, the chimeric receptor binds to the GAL4 binding site on the reporter gene carrier and inhibits reporter gene expression. The inhibition activity of the compounds on RORγ was determined according to the intensity of the chemiluminescence signal.
2.2 Cell Transfection • a) Balancing the Trans-IT transfection reagent at room temperature; • b) Adding 20 μl of the transfection reagent and 600 μl of Opti-MEM™ medium without contacting the tube wall, mixing uniformly through blowing and pipetting by a pipette gun, and allowing to stand at room temperature for 5 minutes; • c) Adding 10 μg of the plasmid to the transfection reagent (see Step 2.2.b), and allowing to stand at room temperature for 20 minutes; • Plasmids: 5 μg of pBIND-RORγ and 5 μg of pGL4.35 plasmids were respectively added therein; • d) Adding the mixed DNA transfection reagent to a 100 mm cell culture dish (see Step 2.1); • e) Placing the dish in an incubator at 37° C. and 5% CO2 for 5 h. […] Calculation of % Inhibition
[formula] • RLUcmpd: fluorescence value of test compounds • RLUpositive: average value of positive control • RLUvehicle: average value of negative control
IC50s of the compounds were calculated by fitting the % Inhibition and the logarithm values of the compound concentration using Graphad 8.0.

[1] = Pharmacokinetic (PK) assay in mice; assay type: in vivo, C57BL/6 mice
Procedure: The PK of each compound was determined as follows: 6 C57BL/6 mice (obtained from Shanghai Lingchang Biotechnology Co., Ltd.) were divided into two groups with 3 in each group. One group was administered intravenously at a dose of 1 mg/kg in the vehicle of 5% DMSO/95% (20% Captisol); the other group was administered by oral gavage at a dose of 5 mg/kg in the vehicle of 0.5% CMC-Na/0.5% Tween 80. Blood samples were collected from saphenous vein of lower leg in each group at 0, 0.083, 0.25, 0.5, 1, 2, 4, 6, 8 and 24 h after administration. Approximately 40 μL of the blood samples were collected into anticoagulant tubes containing EDTA-K2 Immediately after collection, the tubes were inverted at least 5 times to ensure uniform mixing, and then placed on ice. The blood samples collected at each time point were centrifuged at 4° C., 8000 rpm for 5 minutes to obtain plasma. Another 1.5 mL centrifuge tube was marked with the compound name, animal number, and time point, and the plasma was transferred to this tube. The plasma was stored at −80° C. until analysis.
Compound concentrations in the plasma were determined by UPLC-MS/MS method, and the pharmacokinetic parameters were calculated from the obtained data by Phoenix WinNolin 6.4 pharmacokinetic software.

[2] = C57BL/6, mouse, plasma, IV, 1 mg/kg
[3] = C57BL/6, mouse, plasma, Po, 5 mg/kg

Row | Structure (SMILES) | pIC50 (RORγt) | Emax (RORγt) [%] | further results
1 | CCS(=O)(=O)c1ccc2c(c1)CCN(C=O)C2C(=O)Nc1ccc(C(O)(C(F)(F)F)C(F)(F)F)cc1 (stereo not shown) [Example 19, 6-(Ethylsulfonyl)-2-formyl-N-(4-(1,1,1,3,3,3-hexafluoro-2-hydroxypropan-2-yl)phenyl)-1,2,3,4-tetrahydroisoquinoline-1-carboxamide] | 7.83 | 101 | 
2 | CCS(=O)(=O)c1ccc2c(c1)CCN(C(=O)CCC(=O)O)C2C(=O)Nc1ccc(C(O)(C(F)(F)F)C(F)(F)F)cc1 (stereo not shown) [Example 4, 4-(6-(Ethylsulfonyl)-1-((4-(1,1,1,3,3,3-hexafluoro-2-hydroxypropan-2-yl)phenyl)carbamoyl)-3,4-dihydroisoquinolin-2(1H)-yl)-4-oxobutanoic acid] | 5.52 | 73.8 | 
3 | CC(=O)N1CCc2cc(S(=O)(=O)CC3CC3)ccc2C1C(=O)Nc1ccc(C(O)(C(F)(F)F)C(F)(F)F)cc1 (stereo not shown) [Example 21, 2-Acetyl-6-((cyclopropylmethyl)sulfonyl)-N-(4-(1,1,1,3,3,3-hexafluoro-2-hydroxypropan-2-yl)phenyl)-1,2,3,4-tetrahydroisoquinoline-1-carboxamide] | 7.90 | 102 | 
4 | CCS(=O)(=O)c1ccc2c(c1)CCN(C(C)=O)C2C(=O)Nc1ccc(OC(F)(F)F)cc1 (stereo not shown) [Example 12, 2-Acetyl-6-(ethylsulfonyl)-N-(4-(trifluoromethoxy)phenyl)-1,2,3,4-tetrahydroisoquinoline-1-carboxamide] | 6.54 | 95.7 | 
5 | CCS(=O)(=O)c1ccc2c(c1)CCN(C(=O)C1CC1)C2C(=O)Nc1ccc(C(O)(C(F)(F)F)C(F)(F)F)cc1 (stereo not shown) [Example 14, 2-(Cyclopropanecarbonyl)-6-(ethylsulfonyl)-N-(4-(1,1,1,3,3,3-hexafluoro-2-hydroxypropan-2-yl)phenyl)-1,2,3,4-tetrahydroisoquinoline-1-carboxamide] | 7.08 | 98.8 | 
6 | CCS(=O)(=O)c1ccc2c(c1)CCN(C(C)=O)C2C(=O)Nc1cc(Cl)c(C2=CCOCC2)c(Cl)c1 (stereo not shown) [Example 18, 2-Acetyl-N-(3,5-dichloro-4-(3,6-dihydro-2H-pyran-4-yl)phenyl)-6-(ethylsulfonyl)-1,2,3,4-tetrahydroisoquinoline-1-carboxamide] | 6.97 | 95.8 | 
7 | CC(=O)N1Cc2cc(S(C)(=O)=O)ccc2[C@@H]1C(=O)Nc1ccc(C(O)(C(F)(F)F)C(F)(F)F)cc1 [AZD-0284, reference compound] |  |  | AUC(0-t) [1, 2]: 1180 ng·h/mL; Cmax [1, 2]: 2480 ng/mL; half-life [1, 2]: 7.75 h; Vd ([1]; C57BL/6, mouse, plasma, IV, 1 mg/kg, read-out: Vss): 6.29 L/kg; bioavailability ([1]; C57BL/6, mouse, plasma, Po 5 mg/kg vs IV 1 mg/kg): 38%; AUC(0-t) [1, 3]: 2780 ng·h/mL; Cmax [1, 3]: 264 ng/mL; half-life [1, 3]: 3.35 h; CL_obs ([1]; IV, 1 mg/kg): 12.6 mL/min/kg
8 | CNS(=O)(=O)c1ccc2c(c1)CCN(C(C)=O)C2C(=O)Nc1ccc(C(O)(C(F)(F)F)C(F)(F)F)cc1 (stereo not shown) [Example 22, 2-Acetyl-N-(4-(1,1,1,3,3,3-hexafluoro-2-hydroxypropan-2-yl)phenyl)-6-(N-methylsulfamoyl)-1,2,3,4-tetrahydroisoquinoline-1-carboxamide] | 7.75 | 102 | 
9 | CC(=O)N1CCc2cc(S(C)(=O)=O)ccc2C1C(=O)Nc1cc(Cl)c(C2=CCOCC2)c(Cl)c1 (stereo not shown) [Example 17, 2-Acetyl-N-(3,5-dichloro-4-(3,6-dihydro-2H-pyran-4-yl)phenyl)-6-(methylsulfonyl)-1,2,3,4-tetrahydroisoquinoline-1-carboxamide] | 7.17 | 95.9 | 

The next lines start with results.

Row | pIC50 (RORγt) | Emax (RORγt) [%] | Structure (SMILES) | further results
10 | 6.21 |  | CCS(=O)(=O)c1ccc2c(c1)CCN(C(C)=O)C2C(=O)Nc1ccc(C(F)(C(F)(F)F)C(F)(F)F)cc1 (single isomer, unassigned) [Example 9, (S)-2-acetyl-6-(ethylsulfonyl)-N-(4-(perfluoropropan-2-yl)phenyl)-1,2,3,4-tetrahydroisoquinoline-1-carboxamide or (R)-2-acetyl-6-(ethylsulfonyl)-N-(4-(perfluoropropan-2-yl)phenyl)-1,2,3,4-tetrahydroisoquinoline-1-carboxamide] | Emax % (RORγt): 107.1%
11 | 6.81 | 101 | CCC(=O)N1CCc2cc(S(=O)(=O)CC)ccc2C1C(=O)Nc1ccc(C(O)(C(F)(F)F)C(F)(F)F)cc1 (stereo not shown) [Example 13, 6-(Ethylsulfonyl)-N-(4-(1,1,1,3,3,3-hexafluoro-2-hydroxypropan-2-yl)phenyl)-2-propionyl-1,2,3,4-tetrahydroisoquinoline-1-carboxamide] | 
12 | 7.39 | 102 | CCS(=O)(=O)c1ccc2c(c1)CCN(C(C)=O)C2C(=O)Nc1ccc(C(O)(C(F)(F)F)C(F)(F)F)cc1F (stereo not shown) [Example 10, 2-Acetyl-6-(ethylsulfonyl)-N-(2-fluoro-4-(1,1,1,3,3,3-hexafluoro-2-hydroxypropan-2-yl)phenyl)-1,2,3,4-tetrahydroisoquinoline-1-carboxamide] | 
13 | 8.42 | 99.2 | CCS(=O)(=O)c1ccc2c(c1)CCN(C(C)=O)C2C(=O)Nc1ccc(C(F)(C(F)(F)F)C(F)(F)F)cc1 (single isomer, unassigned) [Example 8, (R)-2-acetyl-6-(ethylsulfonyl)-N-(4-(perfluoropropan-2-yl)phenyl)-1,2,3,4-tetrahydroisoquinoline-1-carboxamide or (S)-2-acetyl-6-(ethylsulfonyl)-N-(4-(perfluoropropan-2-yl)phenyl)-1,2,3,4-tetrahydroisoquinoline-1-carboxamide] | 
14 | 7.04 | 104 | CC(=O)N1CCc2cc(S(C)(=O)=O)ccc2C1C(=O)Nc1ccc(C(O)(C(F)(F)F)C(F)(F)F)cc1F (stereo not shown) [Example 11, 2-Acetyl-N-(2-fluoro-4-(1,1,1,3,3,3-hexafluoro-2-hydroxypropan-2-yl)phenyl)-6-(methylsulfonyl)-1,2,3,4-tetrahydroisoquinoline-1-carboxamide] | 
15 | 6.17 |  | CCS(=O)(=O)c1ccc2c(c1)CCN(C(C)=O)C2C(=O)Nc1ccc(C(O)(C(F)(F)F)C(F)(F)F)cc1 (single isomer, unassigned) [Example 3, (S)-2-acetyl-6-(ethylsulfonyl)-N-(4-(1,1,1,3,3,3-hexafluoro-2-hydroxypropan-2-yl)phenyl)-1,2,3,4-tetrahydroisoquinoline-1-carboxamide or (R)-2-acetyl-6-(ethylsulfonyl)-N-(4-(1,1,1,3,3,3-hexafluoro-2-hydroxypropan-2-yl)phenyl)-1,2,3,4-tetrahydrosoquinoline-1-carboxamide] | Emax % (RORγt): 111.3%
